This note sets out measurements from ChEMBL document CHEMBL4414635, “Dasymaschalolactams A-E, Aristolactams from a Twig Extract of Dasymaschalon dasymaschalum” (J Nat Prod, 2019).

The nature of this test: Inhibition of Saccharomyces cerevisiae alpha-glucosidase using p-nitrophenyl alpha-D-glucoside as substrate incubated for 0.5 hrs followed by substrate addition and measured after 1 hr by colorimetric assay.
In turn, `COc1ccc([C@@H]2CC(=O)c3c(O)cc(O)c(O)c3O2)cc1` displayed an IC50 of 256 µM. In the case of `C[C@H]1O[C@H](O[C@H]2[C@H](O)[C@@H](O)[C@@H](O[C@H]3[C@H](O)[C@@H](O)C(O)O[C@@H]3CO)O[C@@H]2CO)[C@H](O)[C@@H](O)[C@@H]1N[C@H]1C=C(CO)[C@@H](O)[C@H](O)[C@H]1O` (some centres undefined) [ACARBOSE] it was 73.7 µM. As for `O=C(/C=C/c1ccc(O)cc1)NCCc1ccc(O)cc1` [N-P-COUMAROYL TYRAMINE], the figure is 4.5 µM. As for `COc1cc(/C=C/C(=O)NCCc2ccc(O)cc2)ccc1O` [N-TRANS-FERULOYL TYRAMINE], the figure is 24.7 µM.
